Measurements as given in ChEMBL document CHEMBL3392969, “SAR156497, an exquisitely selective inhibitor of aurora kinases” (J Med Chem, 2015).

Assays:
Aurora kinase B = Aurora kinase B (Homo sapiens, UniProt Q96GD4)
Description: Inhibition of poly-histidine tagged full length recombinant aurora B (unknown origin) assessed as phosphorylation of NuMA-histidine substrate by scintillation counting analysis

HeLa = experiment: cells; conditions: Homo sapiens
Description: Antiproliferative activity against human HeLa cells assessed as 14C-thymidine incorporation by Micro-Beta radioactivity counting analysis

in vitro [1] = conditions: human, liver microsomes
Description: Metabolic stability human liver microsomes assessed as stability at 5 uM by LC/MS-MS analysis

in vitro [2] = conditions: mouse, liver microsomes
Description: Metabolic stability mouse liver microsomes assessed as stability at 5 uM by LC/MS-MS analysis

Chain of Aurora kinase B (Q96GD4 whole entry): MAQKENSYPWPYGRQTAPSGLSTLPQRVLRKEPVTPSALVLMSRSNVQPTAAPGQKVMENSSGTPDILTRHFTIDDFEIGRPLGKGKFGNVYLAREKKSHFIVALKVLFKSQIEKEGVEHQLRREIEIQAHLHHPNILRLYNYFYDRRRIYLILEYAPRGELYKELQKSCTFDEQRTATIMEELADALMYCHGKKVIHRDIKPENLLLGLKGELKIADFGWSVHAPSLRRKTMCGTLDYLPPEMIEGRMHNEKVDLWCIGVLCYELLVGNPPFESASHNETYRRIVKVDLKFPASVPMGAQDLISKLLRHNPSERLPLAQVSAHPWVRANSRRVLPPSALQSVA

SMILES | IC50 (Aurora kinase B) | IC50 (HeLa) | remaining at 5 µM (in vitro [1]) | remaining at 5 µM (in vitro [2])
O=C1CNCC2=C1C(c1cccc(Oc3cc(Cl)cc(Cl)c3)c1)c1c[nH]nc1N2 (racemic) | – | > 10000 nM | – | –
O=C1CNCC2=C1C(c1cccc(Oc3ccccc3)c1)c1c[nH]nc1N2 (racemic) | – | > 10000 nM | – | –
O=C1CNCC2=C1C(c1cccc(Oc3ccc(Cl)cc3)c1)c1c[nH]nc1N2 (racemic) | – | > 10000 nM | – | –
COc1ccc(Oc2cccc(C3C4=C(CNCC4=O)Nc4n[nH]cc43)c2)cc1 (racemic) | – | > 10000 nM | – | –
O=C1CNCC2=C1C(c1cccc(Oc3ccc(Cl)c(Cl)c3)c1)c1c[nH]nc1N2 (racemic) | – | > 10000 nM | – | –
O=C1CNCC2=C1C(c1ccc(Sc3nc4ccccc4[nH]3)o1)c1c[nH]nc1N2 (racemic) | – | > 10000 nM | – | –
O=C1CCCC2=C1C(c1ccc(Sc3nc4ccccc4[nH]3)o1)c1n[nH]cc1N2 (racemic) | 500 nM | > 10000 nM | – | –
NC(=O)c1[nH]nc2c1NC1=C(C(=O)CCC1)C2c1ccc(Sc2nc3ccccc3[nH]2)o1 (racemic) | 19 nM | > 10000 nM | – | –
Nc1nc(O)c2c(n1)NC1=C(C(=O)CCC1)C2c1ccc(Sc2nc3ccccc3[nH]2)o1 (racemic) | – | > 10000 nM | – | –
CCOC(=O)c1[nH]cc2c1NC1=C(C(=O)CCC1)C2c1ccc(Sc2nc3c(F)c(F)c(F)cc3[nH]2)o1 (racemic) | – | – | 46% | 22%
CCOC(=O)c1[nH]cc2c1NC1=C(C(=O)CNC1)C2c1ccc(Sc2nc3cccc(Cl)c3[nH]2)o1 (racemic) | 5 nM | – | – | –
CCOC(=O)c1[nH]cc2c1NC1=C(C(=O)CNC1)C2c1ccc(Sc2nc3c(F)cccc3[nH]2)o1 (racemic) | 3 nM | – | – | –
CCOC(=O)c1[nH]cc2c1NC1=C(C(=O)CN(C(=O)OC(C)(C)C)C1)C2c1ccc(Sc2nc3ccccc3[nH]2)o1 (racemic) | 26 nM | – | – | –
CCOC(=O)c1[nH]cc2c1NC1=C(C(=O)CN(Cc3ccccc3)C1)C2c1ccc(Sc2nc3ccccc3[nH]2)o1 (racemic) | 8 nM | – | – | –
CCOC(=O)c1[nH]cc2c1NC1=C(C(=O)CCC1)C2c1cnc(Sc2nc3ccccc3[nH]2)s1 (racemic) | – | > 10000 nM | – | –
CCOC(=O)c1[nH]cc2c1NC1=C(C(=O)CCC1)C2c1ccnc(Sc2nc3ccccc3[nH]2)c1 (racemic) | 1100 nM | > 10000 nM | – | –

The remaining compounds from weak to strong by IC50 (HeLa), led by results:

IC50 (Aurora kinase B) | IC50 (HeLa) | remaining at 5 µM (in vitro [1]) | remaining at 5 µM (in vitro [2]) | SMILES
7 nM | 9700 nM | – | – | CCOC(=O)c1[nH]cc2c1NC1=C(C(=O)CCC1)C2c1cccc(Sc2nc3ccccc3[nH]2)c1 (racemic)
16 nM | 8750 nM | – | – | O=C1CCCC2=C1C(c1ccc(Sc3nc4ccccc4[nH]3)o1)c1c[nH]c(C(=O)O)c1N2 (single isomer, unassigned; (+))
33 nM | 7700 nM | – | – | CCOC(=O)c1[nH]nc2c1NC1=C(C(=O)CCC1)C2c1ccc(Sc2nc3ccccc3[nH]2)o1 (racemic)
180 nM | 4600 nM | – | – | CCOC(=O)c1[nH]cc2c1NC1=C(C(=O)CCC1)C2c1ccc(Sc2nc3ccccc3[nH]2)s1 (racemic)
7 nM | 4400 nM | – | – | CCOC(=O)c1[nH]cc2c1NC1=C(C(=O)CCC1)C2c1cccc(Sc2nc3ccccc3[nH]2)n1 (racemic)
127 nM | 3700 nM | – | – | O=C1CCCC2=C1C(c1ccc(Sc3nc4ccccc4[nH]3)o1)c1c[nH]cc1N2 (single isomer, unassigned; (+))
2 nM | 1500 nM | – | – | CCOC(=O)c1[nH]cc2c1NC1=C(C(=O)CCC1)C2c1cc(Sc2nc3ccccc3[nH]2)cs1 (racemic)
5 nM | 300 nM | – | – | O=C1CCCC2=C1C(c1ccc(Sc3nc4ccccc4[nH]3)o1)c1cn[nH]c1N2 (racemic)
12 nM | 200 nM | – | – | CCOC(=O)c1[nH]cc2c1NC1=C(C(=O)CCC1)C2c1cccc(Oc2nc3ccccc3[nH]2)c1 (racemic)
5 nM | 127 nM | – | – | COC(=O)c1csc2c1NC1=C(C(=O)CCC1)C2c1ccc(Sc2nc3ccccc3[nH]2)o1 (racemic)
– | 26 nM | – | – | COC(=O)c1[nH]cc2c1NC1=C(C(=O)CCC1)C2c1ccc(Sc2nc3ccccc3[nH]2)o1 (single isomer, unassigned; (+))
